According to US20200354426A1 (MEDIMMUNE LIMITED, priority 2016, published 2020):
Numbered stars: 1 amine (or outer) side, 2 acyl side, 3 side chain; on linkers, the order of the positions; unused ones are H or OH. Side chains are listed from the residue outwards. Peptide text beside a SMILES is read from it. * marks the point of attachment. γGlu = O=C(O)[C@H](CCC(=O)[*:2])N[*:1]; Palmitoyl = CCCCCCCCCCCCCCCC(=O)*

Columns and labels:
[1] = test system: healthy volunteers; test: Phase 1 single-ascending-dose study of G933 (PK, PD, immunogenicity, safety); assay type: in vivo, human; conditions: for Overall daily food intake compared with placebo: across breakfast, lunch and dinner; for Median glucose peak after breakfast: approximately 1 hour post breakfast, 3.5 hours post dose; for Median glucose peak after dinner: approximately 1 hour post dinner, […] post dose; for Median glucose peak after lunch: approximately 1 hour post lunch, 7 hours post dose
Text: The subjects were screened for the following inclusion and exclusion criteria.
Inclusion Criteria: • Healthy volunteers, ages 18 through 45 years at the time of screening; • Body mass index ≥22 and ≤30 kg/m^2 and body weight ≥70 kg; and • Venous access suitable for multiple cannulations.
The period of exclusion to begin 30 days or 5 half-lives of investigational product after the final dose, or after the last visit, whichever is longest. Subjects consented and screened, but not randomized into this study or a previous study, are not excluded; or • Psychiatric illness such that subjects have been committed to an institution by way of official or judicial order
Eight subjects per cohort were planned.

[2] = target: T1, Human GlucR (Homo sapiens, UniProt P47871); test: cAMP assay in 4.4% human serum albumin (assay 2); assay type: cell-based
T1 construct: expressed in transfected cells
Experimental: (§1) Cryopreserved cell stocks were prepared in 1× cell freezing medium-DMSO serum free (Sigma Aldrich) at 2×10^7/vial and stored at −80° C. […] Peptides were serially diluted in DMSO and then diluted 100 fold into DMEM containing serum albumin at stated final concentration. […] Cells were added to the assay plates and incubated for 30 min at room temperature. Following incubation the assay was stopped and cAMP levels measured using the HTRF® dynamic d2 cAMP assay kit available from CisBio Bioassays, as per the manufacture's guidelines. Plates were read on Perkin Elmer ENVISION® fluorescence plate readers. Human and rat serum albumin were purchased from Sigma Aldrich and mouse serum albumin from Equitech Bio Ltd.
(§2) Data was transformed to % Delta F as described in manufacturer's guidelines and analysed by 4-parameter logistic fit to determine EC50 values. […] For instance. […] To compare the balance of activities at the GLP1R and GlucR between different peptides and across different conditions, these can be correlated using the calculation below, where the EC50's are related to those of the natural ligands.

[3] = Peptide solubility in buffers (A280); assay type: physicochemical
Text: G730 was soluble in a pH range of 4.5 to 8.0.

[4] = Peptide solubility in isotonic formulations (A280); assay type: physicochemical
Experimental: Default Formulation (DF)=0.1 M Tris pH 7.5, 150 mM Mannitol. Final formulation pH=7.2 • 2. Back up formulation t (BF)=0.05M Tris, 50 mM Arginine/Proline. Final formulation pH=9.0 • 3. […] Final formulation pH=7.0

[5] = target: T2, Rat GLP1R (Rattus norvegicus, UniProt P32301); test: cAMP assay in 3.2% rat serum albumin (assay 2); assay type: cell-based
T2 construct: expressed in transfected cells
T2 sequence (P32301 22-463): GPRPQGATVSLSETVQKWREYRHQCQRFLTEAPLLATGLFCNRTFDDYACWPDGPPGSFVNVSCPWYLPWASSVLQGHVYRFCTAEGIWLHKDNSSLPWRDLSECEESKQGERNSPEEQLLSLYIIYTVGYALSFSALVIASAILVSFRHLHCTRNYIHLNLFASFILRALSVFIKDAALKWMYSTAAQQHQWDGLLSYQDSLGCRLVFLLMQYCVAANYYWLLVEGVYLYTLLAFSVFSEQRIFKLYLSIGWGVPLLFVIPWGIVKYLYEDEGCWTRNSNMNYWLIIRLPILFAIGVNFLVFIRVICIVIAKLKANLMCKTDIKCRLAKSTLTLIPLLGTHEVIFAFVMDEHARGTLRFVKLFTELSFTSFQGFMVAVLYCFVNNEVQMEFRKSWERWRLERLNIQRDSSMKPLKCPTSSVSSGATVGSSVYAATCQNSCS
Experimental: as §1, §2

T1 sequence (P47871 26-477): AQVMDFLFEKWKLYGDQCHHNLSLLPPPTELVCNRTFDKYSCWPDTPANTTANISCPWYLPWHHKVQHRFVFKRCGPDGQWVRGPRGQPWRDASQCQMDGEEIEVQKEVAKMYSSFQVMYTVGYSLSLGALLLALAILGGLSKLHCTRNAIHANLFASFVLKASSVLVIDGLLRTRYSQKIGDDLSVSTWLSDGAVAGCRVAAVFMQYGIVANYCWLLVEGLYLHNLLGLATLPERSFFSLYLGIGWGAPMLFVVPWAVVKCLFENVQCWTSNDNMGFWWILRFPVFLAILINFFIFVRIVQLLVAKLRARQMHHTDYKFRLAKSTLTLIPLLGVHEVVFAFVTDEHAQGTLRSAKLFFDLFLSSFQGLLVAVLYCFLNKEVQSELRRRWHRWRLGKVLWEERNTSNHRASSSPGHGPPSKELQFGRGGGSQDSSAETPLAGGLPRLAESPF

Compound: L-Histidyl-L-seryl-L-glutaminylglycyl-L-threonyl-L-phenylalanyl-L-threonyl-L-seryl-L-alpha-aspartyl-(N6-[N-(1-oxohexadecyl)-L-gamma-gutamyl])L-lysy-L-sery-L-alpha-glutamyl-L-tyrosyl-L-leucyl-L-alpha-aspartyl-L-seryl-L-alpha-glutamyl-L-arginyl-L-alanyl-L-arginyl-L-alpha-L-aspartyl-L-phenylalanyl-L-valyl-L-alanyl-L-tryptophyl-L-leucyl-L-alpha-glutamyl-L-alanylglycylglycine [Peptide G933]
- Overall daily food intake compared with placebo ([1]; Dose (µg) 5): 100%
- Median glucose peak after breakfast ([1]; Dose (µg) 5): 6.2 mmol/L
- Median glucose peak after dinner ([1]; Dose (µg) 5): 7.0 mmol/L
- Median glucose peak after lunch ([1]; Dose (µg) 5): 4.9 mmol/L
- Overall daily food intake compared with placebo ([1]; Dose (µg) 10): 100%
- Median glucose peak after breakfast ([1]; Dose (µg) 10): 5.8 mmol/L
- Median glucose peak after dinner ([1]; Dose (µg) 10): 6.0 mmol/L
- Median glucose peak after lunch ([1]; Dose (µg) 10): 5.1 mmol/L
- Overall daily food intake compared with placebo ([1]; Dose (µg) 30): 96%
- Median glucose peak after breakfast ([1]; Dose (µg) 30): 5.4 mmol/L
- Median glucose peak after dinner ([1]; Dose (µg) 30): 5.2 mmol/L
- Median glucose peak after lunch ([1]; Dose (µg) 30): 4.4 mmol/L
- Overall daily food intake compared with placebo ([1]; Dose (µg) 100): 82%
- Median glucose peak after breakfast ([1]; Dose (µg) 100): 5.5 mmol/L
- Median glucose peak after dinner ([1]; Dose (µg) 100): 5.2 mmol/L
- Median glucose peak after lunch ([1]; Dose (µg) 100): 4.7 mmol/L
- Overall daily food intake compared with placebo ([1]; Dose (µg) 150): 60%
- Median glucose peak after breakfast ([1]; Dose (µg) 150): 5.1 mmol/L
- Median glucose peak after dinner ([1]; Dose (µg) 150): 5.2 mmol/L
- Median glucose peak after lunch ([1]; Dose (µg) 150): 5.1 mmol/L
- Overall daily food intake compared with placebo ([1]; Dose (µg) 300): 23%
- Median glucose peak after breakfast ([1]; Dose (µg) 300): 4.7 mmol/L
- Median glucose peak after dinner ([1]; Dose (µg) 300): 4.9 mmol/L
- Median glucose peak after lunch ([1]; Dose (µg) 300): 5.1 mmol/L
- overall daily food intake ([1]; all single doses compared with placebo): reduction in overall daily food intake
- plasma glucose levels ([1]; all single doses, 2.5-14 hours post-dose): glucose lowering effect

Compound: CCCCCCCCCCCCCCCC(=O)N[C@@H](CCC(=O)NCCCC[C@H](NC(=O)[C@H](CCCCN)NC(=O)[C@H](CO)NC(=O)[C@H](Cc1ccc(O)cc1)NC(=O)[C@H](CC(=O)O)NC(=O)[C@H](CO)NC(=O)[C@@H](NC(=O)[C@H](Cc1ccccc1)NC(=O)[C@@H](NC(=O)CNC(=O)[C@H](CCC(N)=O)NC(=O)[C@H](CO)NC(=O)[C@@H](N)Cc1c[nH]cn1)[C@@H](C)O)[C@@H](C)O)C(=O)N[C@@H](CC(C)C)C(=O)N[C@@H](CC(=O)O)C(=O)N[C@@H](CO)C(=O)N[C@@H](CCC(=O)O)C(=O)N[C@@H](CCCNC(=N)N)C(=O)N[C@@H](C)C(=O)N[C@@H](CCCNC(=N)N)C(=O)N[C@@H](CC(=O)O)C(=O)N[C@@H](Cc1ccccc1)C(=O)N[C@H](C(=O)N[C@@H](C)C(=O)N[C@@H](Cc1c[nH]c2ccccc12)C(=O)N[C@@H](CC(C)C)C(=O)N[C@H](C(=O)N[C@@H](C)C(=O)NCC(=O)NCC(N)=O)C(C)C)C(C)C)C(=O)O [Peptide G730] (H-HSQGTFTSDYSKK([γGlu-Palmitoyl])LDSERARDFVAWLVAGG-NH2; N-terminus assumed)
- EC50 [2]: 0.402 nM
- Human GlucR/GLP1R Ratio ([2]; relative potency GlucR / relative potency GLP1R vs natural ligands): 0.122
- Conc. (A280), target 1 mg/ml ([3]; Glutamate pH 4.5, 100 mM): 830 µg/mL
- Conc. (A280), target 1 mg/ml ([3]; Phosphate pH 6.5, 100 mM): 830 µg/mL
- Conc. (A280), target 1 mg/ml ([3]; Phosphate pH 7.5, 100 mM): 850 µg/mL
- Conc. (A280), target 1 mg/ml ([3]; Phosphate, pH = 6, 100 mM): 140 µg/mL
- Conc. (A280), target 1 mg/ml ([3]; Tris pH 7.5, 100 mM): 830 µg/mL
- Conc. (A280), target 1 mg/ml ([3]; Tris pH 8.0, 100 mM): 1100 µg/mL
- solubility ([4]; Default Formulation (DF), isotonic, DF = 0.1 M Tris pH 7.5, 150 mM Mannitol): ≥ 5000 µg/mL
- Formulation Concentration ([4]; Formulation DF, by A280 nm): 5 mg/mL
- 10 mg/ml solubility (BF2) ([4]; yes/no): no
- EC50 [5]: 0.081 nM
